For data set [1] the following is noted: as reported in Japanese Patent Public Disclosure No. 25323/84; cited from earlier work.
Another data set concerns rats. The experiment in a line: Acute toxicity via oral route in rats. The class given is in vivo.
Data set [2] deals with superoxide anion (O2−) production level in thoracic aorta tissue sections. The experiment in a line: Superoxide anion (O2−) production level in thoracic aorta tissue sections, lucigenin-enhanced chemiluminescence, after 8 weeks oral dosing. Type of data set: in vivo, Male Sprague-Dawley rats. Conditions: endothelium-separated sections EC (−), comparison among the 4 groups (CTR, CTR+BH4, FR, FR+BH4). As to the method:
Male Sprague-Dawley rats (150 g, supplied from Charles River) were used to prepare a model group with insulin resistance induced by fructose feed loading (hereinafter referred to as “FR group”) according to the procedure described by Hwang et al. (Hwang, I-H. et al., Hypertension 10:512, 1987). A control group grown with a starch feed (hereinafter referred to as “CTR group”) was also prepared (FR group: n=16; CTR group: n=16). FR group received a feed containing 67% (hereinafter meaning % by weight) carbohydrate (containing 98% fructose available from Oriental Yeast Co., Ltd.), 13% fat and 20% protein, while CTR group received a feed containing 58% carbohydrate, 12% fat and […]. […] After 8 weeks, the thoracic aorta was collected. For each group, endothelium-separated sections (EC (−)) and non-separated sections (EC (+)) were prepared and examined for superoxide anion (O2^−) production level, endothelial NOS (eNOS) activity and endothelium-dependent vasorelaxation.
Group-to-group statistic analyses were made by one-way ANOVA, with the significance level being p<0.05. Multiple comparison was made by Bonferronl/Dunn, with the significance level being p<0.05.
Measurement of O2^−production level was made by the lucigenin-enhanced chemiluminescence method (Ohara et al., J. Clin. Invest. 91: 2546, 1993).

Where a name gives a salt, the structure may show the parent alone.

Turning to `C[C@H](O)[C@H](O)C1CNc2nc(N)[nH]c(=O)c2N1` (stereo partly drawn) [(6R,S)-5,6,7,8-tetrahydrobiopterin], the toxicity result in data set [1] was “only slightly toxic”. Consider `C[C@H](O)[C@H](O)[C@H]1CNc2nc(N)[nH]c(=O)c2N1` [BH4 dihydrochloride, (6R)-L-erythro-5,6,7,8-tetrahydrobiopterin], for which the acute toxicity with rats is recorded as ≥ 2 g/kg (body weight). Regarding `C[C@H](O)[C@H](O)[C@H]1CNc2nc(N)[nH]c(=O)c2N1` [BH4, (6R)-L-erythro-5,6,7,8-tetrahydrobiopterin], the “O2− production level in EC (−)” value in data set [2] is on record as “No significant difference”.

The values are drawn from US20020082261A1, “PROPHYLACTIC OR THERAPEUTIC AGENTS FOR DISEASES HAIVNG VASCULAR DYSFUNCTION ASSOCIATED WITH INSULIN RESISTANCE” (priority 1998, published 2002).
